According to US12194015B2, “Composition comprising ferrous amino acid particles and method for treating or ameliorating pancreas-related disease using the same” (priority 2018, dated 2025):
Where “and” joins values, the source holds several entries; their conditions need not be identical. Equal values may be shown once.

How the values were obtained:
[1] = system: orthotopic xenograft pancreatic cancer (PANC-1); test: Therapeutic effect (II) with gemcitabine cycles: tumor growth (IVIS) and survival (Example 7); type: in vivo, NOD-SCID mice; settings: for inhibition of the tumor growth of the orthotopic xenograft pancreatic cancer compared to control: composition 24 mg/kg daily, gemcitabine 100 mg/kg in gemcitabine cycles
Description: The human pancreatic adenocarcinoma cell line PANC-1 obtained from preparation example 2 was cloned and labelled with luminescence and fluorescence vector. The luminescence and fluorescence-labelled cells were implanted into pancreas of experimental mice (40 NOD-SCID experimental mice purchased from BioLASCO Taiwan Co., Ltd) with a cell number of 5×10^5 by surgery. 10 days after the cell implantation to the pancreas of the animals, the baseline data was measured by noninvasive in vivo imaging system (IVIS). After the baseline IVIS data were obtained, all the experimental mice were randomly and evenly assigned into groups [the value of mean±3 s.d. of measured IVIS data was calculated, and the animals having an IVIS data within the standard range were assigned into control group (physiological saline was used), the group of the composition of the present invention (24 mg/kg the composition obtained for preparation example 1 was administrated daily), gemcitabine group (100 mg/kg gemcitabine was administered by intravenous injection twice per week continuously for three weeks and discontinuing gemcitabine on the fourth week. These four weeks were named as gemcitabine cycle. There were three gemcitabine cycles in the present example.), and the combination group (100 mg/kg gemcitabine was administered by intravenous injection twice per week continuously for three weeks, and discontinuing gemcitabine on the fourth week, and the 24 mg/kg composition of the present invention obtained from the preparation example 1 were administered daily). […] The time points of IVIS data measurement of this example were: Baseline 10 Day (Baseline 10D), the 17th day (7 days after treatment), the 24th day (14 days after treatment), the 31st day (21 days after treatment), the 38th day (28 days after treatment), the 45th day (35 days after treatment), and the 59th day (49 days after treatment) of experiment. The blood of the experimental mice was collected and the T-bilirubin, GOT, and GPT in blood were examined to monitor the reason causing the jaundice on the fixed time points [Baseline 10 Day (Baseline 10D), the 4th week after treatment, the 8th week after treatment, the 10th week after treatment, and the 12th week after treatment,]. Whether the jaundice occurred or not was also observed by naked eyes. The jaundice signs of mice which could be observed by naked eyes included: emaciation, swollen gall, yellow dark skin, and abnormal yellow limbs and tail. The survival period of each mouse during the experiment was recorded.

[2] = Jaundice observation and blood tests T-bilirubin, GOT/AST, GPT/ALT (Example 6); type: in vivo, NOD-SCID mice
Description: The luminescence and fluorescence-labelled cells were implanted into pancreas of experimental mice (50 NOD-SCID experimental mice purchased from BioLASCO Taiwan Co., Ltd) with a cell number of 5×10^5 by surgery. 10 days after the cell implantation to the pancreas of the animals, the baseline data was measured by noninvasive in vivo imaging system (IVIS). After the baseline IVIS data were obtained, all the experimental mice were randomly and evenly assigned into groups [the value of mean±3 s.d. of measured IVIS data was calculated, and the animals having an IVIS data within the standard range were assigned into control group (physiological saline was used), the group of the composition of the present invention obtained from preparation example (24 mg/kg the composition obtained for preparation example 1 was administrated directly into the stomachs of the mice through feeding tubes once per day), gemcitabine group (100 mg/kg gemcitabine was administered by intravenous injection twice per week), and combination group (24 mg/kg the composition of the present invention was administered daily and 100 mg/kg gemcitabine was administered twice per week), followed by the administration. […] The blood tests for total bilirubin (T-bilirubin), glutamate oxaloacetate transaminase/aspartate aminotransferase (GOT/AST), and glutamate pyruvate transaminase/alanine transaminase (GPT/ALT) of all experimental animals on the 9th week were conducted and the mice were observed whether the jaundice occurred or not by the naked eyes. The jaundice signs of mice which could be observed by naked eyes included: emaciation, swollen gall, yellow dark skin, and abnormal yellow limbs and tail.

[3] = system: orthotopic xenograft pancreatic cancer (PANC-1); test: Therapeutic effect (I) with gemcitabine: tumor growth (IVIS) and survival (Example 6); type: in vivo, NOD-SCID mice
Description: The human pancreatic adenocarcinoma cell line PANC-1 obtained from preparation example 2 was cloned and labelled with luminescence and fluorescence vector. The luminescence and fluorescence-labelled cells were implanted into pancreas of experimental mice (50 NOD-SCID experimental mice purchased from BioLASCO Taiwan Co., Ltd) with a cell number of 5×10^5 by surgery. 10 days after the cell implantation to the pancreas of the animals, the baseline data was measured by noninvasive in vivo imaging system (IVIS). After the baseline IVIS data were obtained, all the experimental mice were randomly and evenly assigned into groups [the value of mean±3 s.d. of measured IVIS data was calculated, and the animals having an IVIS data within the standard range were assigned into control group (physiological saline was used), the group of the composition of the present invention obtained from preparation example (24 mg/kg the composition obtained for preparation example 1 was administrated directly into the stomachs of the mice through feeding tubes once per day), gemcitabine group (100 mg/kg gemcitabine was administered by intravenous injection twice per week), and combination group (24 mg/kg the composition of the present invention was administered daily and 100 mg/kg gemcitabine was administered twice per week), followed by the administration. The dosage and dosage regimen of the composition of the present invention were decided based on the results of example 4 that there were no significant differences between the high-dose group and the low-dose group, so the dosage of 24 mg/kg was chosen for this experiment. The dosage and the dosage regimen of first-line drug for the pancreatic cancer were decided in accordance with two journal articles: Cook, Natalie, et al. “Gamma secretase inhibition promotes hypoxic necrosis in mouse pancreatic ductal adenocarcinoma.” Journal of Experimental Medicine 209.3 (2012): 437-444. and Olive, Kenneth P., et al. “Inhibition of Hedgehog signaling enhances delivery of chemotherapy in a mouse model of pancreatic cancer.” Science (2009), so that the gemcitabine was administered at the dosage of 100 mg/kg twice per week for the experiment. The time points of IVIS data measurement were: Baseline 10 Day (Baseline 10D), the 17th day (the 7th day after administration), the 24th day (14 days after treatment), the 31st day (21 days after treatment), and the 38th day (28 days after treatment) of the experiment. […] The survival period of each mouse during the experiment was recorded.

[4] = Jaundice observation and blood tests T-bilirubin, GOT, GPT (Example 7); type: in vivo; parameters: dose or concentration left out as unconfirmed; settings: 13th week after treatment
Description: The luminescence and fluorescence-labelled cells were implanted into pancreas of experimental mice (40 NOD-SCID experimental mice purchased from BioLASCO Taiwan Co., Ltd) with a cell number of 5×10^5 by surgery. 10 days after the cell implantation to the pancreas of the animals, the baseline data was measured by noninvasive in vivo imaging system (IVIS). After the baseline IVIS data were obtained, all the experimental mice were randomly and evenly assigned into groups [the value of mean±3 s.d. of measured IVIS data was calculated, and the animals having an IVIS data within the standard range were assigned into control group (physiological saline was used), the group of the composition of the present invention (24 mg/kg the composition obtained for preparation example 1 was administrated daily), gemcitabine group (100 mg/kg gemcitabine was administered by intravenous injection twice per week continuously for three weeks and discontinuing gemcitabine on the fourth week. These four weeks were named as gemcitabine cycle. […] The survival period of each mouse during the experiment was recorded. […]

Structure (SMILES): Nc1ccn([C@@H]2O[C@H](CO)[C@@H](O)C2(F)F)c(=O)n1 [gemcitabine]
- inhibition of the tumor growth of the orthotopic xenograft pancreatic cancer compared to control ([1]; 28th day after treatment): 50%-60%
- inhibition of the tumor growth of the orthotopic xenograft pancreatic cancer compared to control ([1]; 49th day after treatment): 50%-60%
- Average survival period ([1]; Example 7, control group 89.4): 114.7 days
- Survival period of the experimental mice ([1]; individual mice, 7 per group, Example 7): 109 Days (2×) and 113 Days and 119 Days and 140 Days and 105 Days and 108 Days
- jaundice ([2]; 9th week after treatment, gemcitabine continuously twice per week): jaundice was found
- T-bilirubin in the blood ([2]; 9 weeks after treatment, versus groups not treated with gemcitabine, FIG. 13A): significantly higher
- GOT in the blood ([2]; 9 weeks after treatment, versus groups not treated with gemcitabine, FIG. 13B): significantly higher
- GPT in the blood ([2]; 9 weeks after treatment, versus groups not treated with gemcitabine, FIG. 13C): significantly higher
- effect of inhibiting the tumor growth of the pancreatic cancer compared to control ([3]; 28 days after treatment, composition 24 mg/kg daily, gemcitabine 100 mg/kg i.v. twice per week): around 50%
- day of the experiment on which the first dead mouse was found ([3]; Example 6, control 60th day): 77 days
- day of the experiment on which the last dead mouse was found ([3]; Example 6, control 91st day): 100 days
- average survival period of the whole group ([3]; Example 6, control 80.1 days): 89.4 days
- number of mice with T-bilirubin higher than the standard [4]: one
